Data taken from article PMC12775434, “Ultra-large virtual screening unveils potent agonists of the neuromodulatory orphan receptor GPR139” (Nature Communications, 2025).
Where “and” joins values, the source holds several entries; their conditions need not be identical. Equal values may be shown once.

Assays:
Type in all cases: cell-based
[1] = molecular target: T1, human muscarinic acetylcholine M1 receptor (M1R) (Homo sapiens, UniProt P11229); experiment: Ca2+ mobilization counter-screen in M1R-CHOk1 cells
T1 sequence (P11229 1-460): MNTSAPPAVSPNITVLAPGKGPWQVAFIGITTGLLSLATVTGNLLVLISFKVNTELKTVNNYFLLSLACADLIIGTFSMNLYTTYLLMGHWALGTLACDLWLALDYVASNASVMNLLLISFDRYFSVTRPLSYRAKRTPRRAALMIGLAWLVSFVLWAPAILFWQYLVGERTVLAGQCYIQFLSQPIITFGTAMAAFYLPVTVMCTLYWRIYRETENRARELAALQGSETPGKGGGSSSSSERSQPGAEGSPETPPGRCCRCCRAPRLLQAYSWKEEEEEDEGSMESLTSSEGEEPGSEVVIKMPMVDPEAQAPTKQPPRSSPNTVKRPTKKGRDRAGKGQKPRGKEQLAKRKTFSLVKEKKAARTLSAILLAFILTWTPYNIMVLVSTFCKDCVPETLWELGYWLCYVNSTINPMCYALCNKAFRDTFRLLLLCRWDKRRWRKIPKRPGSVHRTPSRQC
Summary of the method: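 M1R-CHOk1 cells seeded 20–24 h, loaded with 2 µM Fluo-4 AM (2.5 mM probenecid, 0.01% Pluronic F-68) for 1 h at 37 °C in HBSS/20 mM HEPES pH 7.4. Compounds added after baseline (≤0.3% DMSO); calcium fluorescence read at 37 °C, ex 485/em 525 nm.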

[2] = molecular target: T2, GPR139 (Homo sapiens, UniProt Q6DWJ6); experiment: Ca2+ mobilization assay, antagonist mode (EC80 800 nM Lundbeck Cmp 1a after 20 min preincubation), GPR139-CHOk1
T2 sequence (Q6DWJ6 1-353): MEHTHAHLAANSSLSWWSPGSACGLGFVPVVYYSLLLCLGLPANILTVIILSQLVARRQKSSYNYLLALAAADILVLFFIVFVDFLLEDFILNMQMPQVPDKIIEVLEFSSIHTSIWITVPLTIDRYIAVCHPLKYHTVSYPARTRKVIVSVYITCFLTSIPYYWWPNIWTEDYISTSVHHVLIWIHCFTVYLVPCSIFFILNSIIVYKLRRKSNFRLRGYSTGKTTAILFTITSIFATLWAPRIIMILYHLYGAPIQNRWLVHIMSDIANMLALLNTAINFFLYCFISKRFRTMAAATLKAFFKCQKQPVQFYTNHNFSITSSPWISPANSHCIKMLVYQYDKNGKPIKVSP
Summary of the method: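 Fluo-4-loaded GPR139-CHOk1 cells in HEPES-buffered HBSS (pH 7.4, 2.5 mM probenecid) given test compounds at 10 µM, then after 20 min challenged with 800 nM Lundbeck Cmp 1a (EC80). Calcium fluorescence read at 37 °C, 485/525 nm.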

[3] = molecular target: T2, GPR139; experiment: Ca2+ mobilization assay, agonist mode, stable GPR139-CHOk1 cell line; settings: for EC50: GPR139-CHOk1, read-out: EC50, Ca2+ mobilization; for Emax: Supplementary Table 2, normalized to Lundbeck Cmp 1a, mean ± SEM, read-out: Emax (%) Ca2+
Summary of the method: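 Agonist activity of compounds is assessed in stably transfected CHO-K1 cells using the calcium dye Fluo-4 at 37 °C in HEPES-buffered HBSS (pH 7.4). Efficacy is expressed relative to the reference agonist Lundbeck Cmp 1a, set as 100%.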

[4] = log [Compound] M -4.5, replicate experiments
[5] = log [Compound] M -5.0, replicate experiments
[6] = log [Compound] M -5.5, replicate experiments
[7] = log [Compound] M -6.0, replicate experiments
[8] = log [Compound] M -6.5, replicate experiments
[9] = log [Compound] M -7.0, replicate experiments
[10] = log [Compound] M -7.5, replicate experiments
[11] = log [Compound] M -8.0, replicate experiments
[12] = log [Compound] M -8.5, replicate experiments
[13] = log [Compound] M -9.0, replicate experiments

| SMILES | EC50 [3] [nM] | Emax [3] [%] | Ca2+ signal (% of Cmp 1a) [3, 4] | Ca2+ signal (% of Cmp 1a) [3, 5] | Ca2+ signal (% of Cmp 1a) [3, 6] | Ca2+ signal (% of Cmp 1a) [3, 7] | Ca2+ signal (% of Cmp 1a) [3, 8] | Ca2+ signal (% of Cmp 1a) [3, 9] | Ca2+ signal (% of Cmp 1a) [3, 10] | Ca2+ signal (% of Cmp 1a) [3, 11] | Ca2+ signal (% of Cmp 1a) [3, 12] | Ca2+ signal (% of Cmp 1a) [3, 13] | further results |
| --- | --- | --- | --- | --- | --- | --- | --- | --- | --- | --- | --- | --- | --- |
| Cc1cc(-c2nc(CC(=O)NC(C)c3ccccc3)no2)sc1C (stereo not drawn) [Compound 1, CC(NC(=O)CC1=NOC(=N1)C2=CC(C)=C(C)S2)C=3C=CC=CC3] | 160 | 94 ± 3 | 84 % of Cmp 1a and 91 % of Cmp 1a and 93 % of Cmp 1a | 91 % of Cmp 1a and 83 % of Cmp 1a and 90 % of Cmp 1a | 79 % of Cmp 1a | 79 % of Cmp 1a and 67 % of Cmp 1a and 70 % of Cmp 1a | 57 % of Cmp 1a and 52 % of Cmp 1a and 53 % of Cmp 1a | 45 % of Cmp 1a and 26 % of Cmp 1a and 43 % of Cmp 1a | 27 % of Cmp 1a and 24 % of Cmp 1a and 16 % of Cmp 1a | 10 % of Cmp 1a and 2 % of Cmp 1a and 7.42 % of Cmp 1a | 1.62 % of Cmp 1a and 6 % of Cmp 1a and 3.64 % of Cmp 1a | 6 % of Cmp 1a and -1.9 % of Cmp 1a and 3.54 % of Cmp 1a | Ca2+ signal (% of Carbachol) ([1]; individual replicates (Supplementary Figure 2)): -12 % of Carbachol and -15 % of Carbachol; Ca2+ signal (% of Cmp 1a) ([2]; individual replicates (Supplementary Figure 1)): 6.536 % of Cmp 1a and 8.894 % of Cmp 1a and 14.743 % of Cmp 1a; Ca2+ signal (% of Cmp 1a) ([3]; 0.1 µM, individual replicates (Supplementary Figure 3)): 36.2 % of Cmp 1a and 58.0 % of Cmp 1a; Ca2+ signal (% of Cmp 1a) ([3]; 1 µM, individual replicates (Supplementary Figure 3)): 74.5 % of Cmp 1a and 72.2 % of Cmp 1a; Ca2+ signal (% of Cmp 1a) ([3]; 10 µM, individual replicates (Supplementary Figure 3)): 88.7 % of Cmp 1a and 74.0 % of Cmp 1a; Ca2+ signal (% of Cmp 1a) ([3]; Agonist mode, individual replicates (Supplementary Figure 1)): 94 % of Cmp 1a (2×) and 99 % of Cmp 1a; Ca2+ signal (% of Cmp 1a) ([3]; primary screen, 10 µM compound, agonist mode, three columns = independent experiments): 94 % of Cmp 1a and 99 % of Cmp 1a |
| Cc1cscc1-c1nc(CC(=O)NC(C)c2ccccc2)no1 (stereo not drawn) [Compound 1.1, CC(C1=CC=CC=C1)NC(CC2=NOC(C3=CSC=C3C)=N2)=O] | 50 | 125 ± 12 | 130 % of Cmp 1a and 133 % of Cmp 1a and 104 % of Cmp 1a and 91 % of Cmp 1a | 136 % of Cmp 1a and 130 % of Cmp 1a and 133 % of Cmp 1a and 83 % of Cmp 1a | 124 % of Cmp 1a and 109 % of Cmp 1a and 177 % of Cmp 1a and 86 % of Cmp 1a | 113 % of Cmp 1a and 116 % of Cmp 1a and 167 % of Cmp 1a and 85 % of Cmp 1a | 103 % of Cmp 1a and 101 % of Cmp 1a and 147 % of Cmp 1a and 66 % of Cmp 1a | 80 % of Cmp 1a and 83 % of Cmp 1a and 116 % of Cmp 1a and 48 % of Cmp 1a | 60 % of Cmp 1a and 56 % of Cmp 1a and 80 % of Cmp 1a and 40 % of Cmp 1a | 36 % of Cmp 1a and 26 % of Cmp 1a and 21 % of Cmp 1a and 24 % of Cmp 1a | 21 % of Cmp 1a and 9 % of Cmp 1a and -4 % of Cmp 1a and 18 % of Cmp 1a | 19 % of Cmp 1a and 13 % of Cmp 1a and -16 % of Cmp 1a and 5.33 % of Cmp 1a | Ca2+ signal (% of Carbachol) ([1]; individual replicates (Supplementary Figure 5)): -5 % of Carbachol and -11 % of Carbachol; Ca2+ signal (% of Cmp 1a) ([2]; individual replicates (Supplementary Figure 4)): -3.33 % of Cmp 1a and 11 % of Cmp 1a and -12 % of Cmp 1a; Ca2+ signal (% of Cmp 1a) ([3]; Agonist mode, individual replicates (Supplementary Figure 4)): 96 % of Cmp 1a and 101 % of Cmp 1a and 83 % of Cmp 1a; fold improved potency compared to compound 1 ([3]; Ca2+ mobilization EC50): 3 fold; Ca2+ signal (% of Cmp 1a) ([3]; log [Compound] M = -4.5, individual replicate columns): 130 % of Cmp 1a and 133 % of Cmp 1a and 104 % of Cmp 1a and 91 % of Cmp 1a; Ca2+ signal (% of Cmp 1a) ([3]; log [Compound] M = -5.0, individual replicate columns): 136 % of Cmp 1a and 130 % of Cmp 1a and 133 % of Cmp 1a and 83 % of Cmp 1a; Ca2+ signal (% of Cmp 1a) ([3]; log [Compound] M = -5.5, individual replicate columns): 124 % of Cmp 1a and 109 % of Cmp 1a and 177 % of Cmp 1a and 86 % of Cmp 1a; Ca2+ signal (% of Cmp 1a) ([3]; log [Compound] M = -6.0, individual replicate columns): 113 % of Cmp 1a and 116 % of Cmp 1a and 167 % of Cmp 1a and 85 % of Cmp 1a; Ca2+ signal (% of Cmp 1a) ([3]; log [Compound] M = -6.5, individual replicate columns): 103 % of Cmp 1a and 101 % of Cmp 1a and 147 % of Cmp 1a and 66 % of Cmp 1a; Ca2+ signal (% of Cmp 1a) ([3]; log [Compound] M = -7.0, individual replicate columns): 80 % of Cmp 1a and 83 % of Cmp 1a and 116 % of Cmp 1a and 48 % of Cmp 1a; Ca2+ signal (% of Cmp 1a) ([3]; log [Compound] M = -7.5, individual replicate columns): 60 % of Cmp 1a and 56 % of Cmp 1a and 80 % of Cmp 1a and 40 % of Cmp 1a; Ca2+ signal (% of Cmp 1a) ([3]; log [Compound] M = -8.0, individual replicate columns): 36 % of Cmp 1a and 26 % of Cmp 1a and 21 % of Cmp 1a and 24 % of Cmp 1a; Ca2+ signal (% of Cmp 1a) ([3]; log [Compound] M = -8.5, individual replicate columns): 21 % of Cmp 1a and 9 % of Cmp 1a and -4 % of Cmp 1a and 18 % of Cmp 1a; Ca2+ signal (% of Cmp 1a) ([3]; log [Compound] M = -9.0, individual replicate columns): 19 % of Cmp 1a and 13 % of Cmp 1a and -16 % of Cmp 1a and 5.33 % of Cmp 1a |
